≈ marks a conversion by molar mass, not a printed value. Each block holds one compound with its values, some of them ahead of it.
Assays:
B. cepacia SCV 141 [1] = assay: agar diffusion method, inhibition zone; format: cell-based, Burkholderia cepacia; details: 18 hours at 37° C., per disk 10 μl crude extract, 50 μg macrolactin, 78 μg erythromycin, 10 μg ampicillin; for Inhibition zone: MH agar
Procedure: (§1) The agar diffusion method employing Mueller-Hinton (MH) agar (Difco Laboratories) was used to determine effectiveness against bacteria and yeasts. Sterile paper disks (Schleicher & Schüell, Germany) were seeded with 10 μl crude extract or with a solution of purified macrolactin (final compound concentration on the disk 50 μg) and then placed on the surface of MH-agar plates that had been seeded beforehand with a suspension of overnight culture of the test microorganisms at a concentration of 10^5 cells/ml.
The B. cepacia strain used, which is a clinical isolate from a cystic fibrosis patient, forms small colonies (SCV 141).

[2] = test system: L929 mouse fibroblast cells; assay: inhibition of proliferation, CyQUANT cell proliferation test; format: cell-based; details: 5 days
Procedure: The cytotoxicity of 7-O-malonyl macrolactin A was compared to that of 7-O-succinyl macrolactin A and macrolactin A in vitro with respect to the inhibition of the proliferation of L929 mouse fibroblast cells or the human epithelial cell line HeLa.
For the cell culture, the HeLa cells were cultivated in low-glucose DMEM medium (Gibco), and the L929 cells in high-glucose DMEM medium. Both were supplemented with 10% by volume foetal calf serum (Gibco) at 37° C. in an atmosphere containing 5% CO2. The cells were extracted from stock cultures by means of trypsinization with EDTA (HeLa) or without EDTA (L929), then counted and diluted to 2×10^5 cells/ml. For the tests, microtitre plates (Nunc.) comprising 96 depressions were plated out in serial dilution without or in the presence of the test compounds or methanol. Determination of morphological alterations of the cells was carried out by means of phase contrast microscopy after 1, 2 and 5 days incubation.
After 5 days cultivation, cell counts were determined by the CyQUANT cell proliferation test (Molecular Probes), which is a highly sensitive microtitre plate test based on fluorescence. The test employs the dye CyQUANT, which, by binding to cellular nucleic acids, enhances fluorescence, which can then be measured by fluorescein excitation. The emission of fluorescence by the dye-nucleic acid complex correlated linearly with the cell count. For test purposes, the residue was carefully removed after 5 days incubation, the cells washed with PBS (phosphate buffered saline solution), the buffer removed and the cells frozen at −80° C. For the test, the cells were thawed at ambient temperature and lysated in a buffered solution containing the dye CyQUANT, in accordance with manufacturer's instructions. Fluorescence was measured by means of a fluormetric microtitre-plate reader (Titertex Fluorskan II) (excitation at 480 nm, emission at 520 nm). The […] were used to calculate the percentage of cellular proliferation in medium both alone and in the presence of serial dilutions of methanol and the macrolactin compounds. […] Proliferation was measured by means of the fluorescence-based test CyQUANT for determining viable cell counts. Table 5 illustrates the relative inhibition of proliferation as compared to a control culture comprising fresh medium without the addition of a macrolactin.

E. faecium VRAR E315 [3] = assay: agar diffusion method, inhibition zone; format: cell-based, Enterococcus faecium; details: E. faecium VRAR E315, MH agar, 18 hours at 37° C., per disk 10 μl crude extract, 50 μg macrolactin, 78 μg erythromycin, 30 μg vancomycin, 10 μg ampicillin
Procedure: as §1

[4] = test system: MRSA 2 (methicillin-resistant S. aureus, clinical isolate); assay: agar diffusion method, inhibition zone; format: cell-based, Staphylococcus aureus; details: MRSA 2, MH agar, 18 hours at 37° C., per disk 10 μl crude extract, 50 μg macrolactin, 78 μg erythromycin, 30 μg vancomycin, 10 μg ampicillin
Procedure: as §1

S. aureus DSMZ 1104 = assay: agar diffusion method, inhibition zone; format: cell-based, Staphylococcus aureus; details: S. aureus DSMZ 1104, MH agar, 18 hours at 37° C., per disk 10 μl crude extract, 50 μg macrolactin, 78 μg erythromycin, 30 μg vancomycin, 10 μg ampicillin
Procedure: as §1

[5] = test system: MRSA 3 (methicillin-resistant S. aureus, clinical isolate); assay: agar diffusion method, inhibition zone; format: cell-based, Staphylococcus aureus; details: MRSA 3, MH agar, 18 hours at 37° C., per disk 10 μl crude extract, 50 μg macrolactin, 78 μg erythromycin, 30 μg vancomycin, 10 μg ampicillin
Procedure: as §1

[6] = test system: S. aureus # (own collection, methicillin-sensitive control strain); assay: agar diffusion method, inhibition zone; format: cell-based, Staphylococcus aureus; details: S. aureus # own collection, MH agar, 18 hours at 37° C., per disk 10 μl crude extract, 50 μg macrolactin, 78 μg erythromycin, 30 μg vancomycin, 10 μg ampicillin
Procedure: as §1

E. faecalis ATCC 29212 [7] = assay: agar diffusion method, inhibition zone; format: cell-based, Enterococcus faecalis; details: E. faecalis ATCC 29212, MH agar, 18 hours at 37° C., per disk 10 μl crude extract, 50 μg macrolactin, 78 μg erythromycin, 30 μg vancomycin, 10 μg ampicillin
Procedure: as §1

E. faecalis VRAS E305 [8] = assay: agar diffusion method, inhibition zone; format: cell-based, Enterococcus faecalis; details: E. faecalis VRAS E305, MH agar, 18 hours at 37° C., per disk 10 μl crude extract, 50 μg macrolactin, 78 μg erythromycin, 30 μg vancomycin, 10 μg ampicillin
Procedure: as §1

E. faecalis VRAS E305 [9] = assay: MIC / MBC in liquid culture; format: cell-based, Enterococcus faecalis; details: Enterococcus faecalis, VRASE305; E. faecalis VRAS E305; read-out: MIC (minimal inhibitory concentration)
MRSA 2 = assay: MIC / MBC in liquid culture; format: cell-based, Staphylococcus aureus; details: Staphylococcus aureus; MRSA 2; read-out: MIC (minimal inhibitory concentration)
B. cepacia SCV 141 [10] = assay: MIC / MBC in liquid culture; format: cell-based, Burkholderia cepacia; details: Burkholderia cepacia, SCV141, read-out: MIC (minimal inhibitory concentration)
From the text: (§2) 7-O-malonyl macrolactin A was not effective against some of the gram-negative bacteria tested by the inventors.

B. cepacia WT139 = assay: MIC / MBC in liquid culture; format: cell-based, Burkholderia cepacia; details: Burkholderia cepacia, read-out: MIC (minimal inhibitory concentration)
From the text: as §2

[11] = test system: S. aureus # (non-methicillin-resistant reference strain); assay: MIC / MBC in liquid culture; format: cell-based, Staphylococcus aureus; details: Staphylococcus aureus; S. aureus #; read-out: MIC (minimal inhibitory concentration)
E. faecalis ATCC 29212 [12] = assay: MIC / MBC in liquid culture; format: cell-based, Enterococcus faecalis; details: Enterococcus faecalis, ATCC29212, E. faecalis ATCC 29212; read-out: MIC (minimal inhibitory concentration)
E. faecium VRAR E315 [13] = assay: MIC / MBC in liquid culture; format: cell-based, Enterococcus faecium; details: Enterococcus faecium, VRARE315; E. faecium VRAR E315; read-out: MIC (minimal inhibitory concentration)
MRSA 3 = assay: MIC / MBC in liquid culture; format: cell-based, Staphylococcus aureus; details: Staphylococcus aureus; MRSA 3; read-out: MIC (minimal inhibitory concentration)
[14] = listed as 7-O-Succinyl-macrolactin A

SMILES: CC1CCCC=CC=CC(O)CC(O)CC=CC=CC(OC(=O)CCC(=O)O)CC=CC=CC(=O)O1 (stereo not shown) [7-O-succinyl macrolactin A]
Inhibition zone (B. cepacia SCV 141 [1]): no activity | Inhibition zone (B. cepacia SCV 141 [1]; [14]): 0 mm | Inhibition of proliferation ([2]; compound concentration 3.9 μg/ml): 0% | Inhibition of proliferation ([2]; compound concentration 15.6 μg/ml): 0% | Inhibition of proliferation ([2]; compound concentration 31.25 μg/ml): 55% | Inhibition of proliferation ([2]; compound concentration 56.5 μg/ml): 83% | Inhibition of proliferation ([2]; compound concentration 125 μg/ml): 87% | Inhibition zone (E. faecium VRAR E315 [3]): 20 mm | Inhibition zone [4]: 37 mm | Inhibition zone (S. aureus DSMZ 1104): 18 mm | Inhibition zone [5]: 38 mm | Inhibition zone [6]: 22 mm | Inhibition zone (E. faecalis ATCC 29212 [7]): 12 mm | Inhibition zone (E. faecalis VRAS E305 [8]): no activity | Inhibition zone (E. faecalis VRAS E305 [8]; [14]): 0 mm

MIC (E. faecalis VRAS E305 [9]): 0.5 µg/mL (≈ 1.43 µM) | MIC (MRSA 2): > 128 µg/mL | MIC (B. cepacia SCV 141 [10]): 128 µg/mL (≈ 366 µM) | MIC (B. cepacia WT139): > 128 µg/mL | MIC [11]: 0.06 µg/mL (≈ 0.172 µM) | MIC (E. faecalis ATCC 29212 [12]): 0.5 µg/mL (≈ 1.43 µM) | MIC (E. faecium VRAR E315 [13]): > 128 µg/mL | MIC (MRSA 3): 64 µg/mL (≈ 183 µM)
SMILES: CC1(C)S[C@@H]2[C@H](NC(=O)[C@H](N)c3ccccc3)C(=O)N2[C@H]1C(=O)O [Ampicillin, ampicillin]
zone of inhibition at 10 µg/disc (B. cepacia SCV 141 [1]; Burkholderia cepacia, SCV141, MH agar): 0 mm | zone of inhibition at 10 µg/disc (E. faecium VRAR E315 [3]; Enterococcus faecium, VRARE315): 0 mm | zone of inhibition at 10 µg/disc ([4]; Staphylococcus aureus): 0 mm | zone of inhibition at 10 µg/disc (S. aureus DSMZ 1104; Staphylococcus aureus, DSMZ1104): 30 mm | zone of inhibition at 10 µg/disc ([5]; Staphylococcus aureus): 0 mm | zone of inhibition at 10 µg/disc ([6]; Staphylococcus aureus): 41 mm | zone of inhibition at 10 µg/disc (E. faecalis ATCC 29212 [7]; Enterococcus faecalis, ATCC29212): 32 mm | zone of inhibition at 10 µg/disc (E. faecalis VRAS E305 [8]; Enterococcus faecalis, VRASE305): 35 mm
